Assay results taken from article PMC4189421, “Induction of Oligodendrocyte Differentiation and In Vitro Myelination by Inhibition of Rho-Associated Kinase” (ASN NEURO, 2014).

Assays:
[1] = tested on: mouse neurosphere-derived oligodendrocyte precursor cells (Nph-OPCs); experiment: Morphology-based OPC differentiation assay (branches, outgrowth; high-content imaging); format: cell-based; conditions: mNph-OPC, 72 hr treatment, dose-response
Experimental: Neurospheres (Nph) were prepared from embryos at 14.5 days of gestation obtained from timed pregnant females of C57/Bl6 mice, as previously described ([Kornblum, Yanni, Easterday, & Seroogy, 2000]; [Pedraza, Monk, Lei, Hao, & Macklin, 2008]). In brief, after separation of meninges and cerebellum, cerebrum tissue was mechanically triturated with a 1-ml micropipette until total tissue dissociation was achieved, filtered through a 70 -µm cell strainer (Fisher Scientific, Pittsburgh, PA), and plated in 25-cm^2 plastic culture flasks (2 brains/flask). Nph proliferation media (NPM) consisted of Dulbecco’s Modified Eagle Medium (DMEM)/F12, B27 neuronal supplement (Gibco, Baltimore, MD) and 10 ng/ml […] (EGF; Sigma, St. Louis, MO). After 48 to 72 hr, floating Nphs were passaged at a 1 : 1 ratio into 75-cm^2 culture flasks. After a further 48 to 72 hr, they were passaged into 150-cm^2 flasks. Subsequent passages were performed every 3 to 4 days at a ratio of 1 : 2 or 1 : 3 in the same media, and Nph were used to generate OPCs for no more than 12 passages.
OPCs were generated by chemical disaggregation of Nph with a mouse neural progenitor dissociation kit following the manufacturer instructions (NeuroCult, StemCell Technologies, AB, Canada). The single-cell suspension was then filtered through a 40 -µm cell strainer and plated on poly-D-lysine (PDL)-coated plates. […]
To determine the effects of ROCK inhibition on OPCs, we developed a high-content image morphological analysis of OPC differentiation using mouse embryonic neural progenitor-derived OPCs (Nph-OPCs). […] Four images per well were analyzed using a neurite outgrowth module (Molecular Devices, Sunnyvale, CA). We quantified the number of branches and total outgrowth per cell (Figure 1). […] Additionally, nuclear staining by Hoechst allowed the accurate association of branches and processes to their corresponding cell bodies and permitted quantification of total cell numbers in each well.

mouse Nph-OPCs = experiment: Cell proliferation as number of Hoechst-labeled nuclei; format: cell-based; conditions: 1 µM; n = 3 in triplicate wells; DMSO: 522 ± 126
From the text: To determine the effects of ROCK inhibition on OPCs, we developed a high-content image morphological analysis of OPC differentiation using mouse embryonic neural progenitor-derived OPCs (Nph-OPCs). Neural progenitors grow as nonadherent spheroids known as neurospheres (Nph; [Chojnacki & Weiss, 2008]; [Tropepe et al., 1999]), which are considered to be a mixed population of neural stem cells and progenitors of the CNS ([Rao, 1999]; [Zhou & Chiang, 1998]). These cells have been previously used in multiple published studies for the generation of high-yield, high-purity cultures of OPCs from rodents ([Calaora et al., 2001]; [[…] al., 1997]; [Pedraza et al., 2008]). After 24 hr of plating on PDL-coated tissue culture plastic, Nph-OPCs were treated as indicated with differentiation stimuli and further incubated for 72 hr. […] Four images per well were analyzed using a neurite outgrowth module (Molecular Devices, Sunnyvale, CA). We quantified the number of branches and total outgrowth per cell (Figure 1). […] Additionally, nuclear staining by Hoechst allowed the accurate association of branches and processes to their corresponding cell bodies and permitted quantification of total cell numbers in each well. […]

[2] = tested on: MYPT1 phosphorylation in mNph-OPC; experiment: MYPT1 phosphorylation (sandwich ELISA, western blot) as ROCK target engagement; conditions: 100 µM, 4-hr mNph-OPC treatment
Experimental: Tris-glycine acrylamide-bysacrylamide gradient gel electrophoresis was performed as follows: After washing the cells with ice-cold PBS, protein lysates were made by adding 50 µl of PhosphoSafe extraction reagent (EMD Millipore) supplemented with antiprotease cocktail (cOmplete; Roche, Branford, CT) onto each 100-mm^2 cell culture plate. After detaching the cells with the help of a cell scraper and disrupting cell membranes by sonication, the protein extracts were centrifuged (10,000 g, 10 min, 4℃) and the supernatants separated. Protein content was measured by the BCA protein determination method (Biorad, Hercules, CA), and 30 µg of total protein was mixed with SDS sample buffer (Laemmli) supplemented with 1% β-mercaptoethanol. After heating the samples to 70℃ for 10 min, they were loaded onto 4% to 20% acryl-bysacrylamide gradient gels, and electrophoresis was carried out at 120 volts with constant amperage.
Resolved proteins were then transferred onto nitrocellulose membranes using the iBlot methodology and device (Life technologies). […] Secondary detection was performed using Li-Cor IRDye secondary anti-mouse and anti-rabbit antibodies, and near-infrared signal was detected by Li-Cor’s Odyssey imaging system.
We assessed MYPT1 phosphorylation in Nph-OPCs treated for 4 hr with ROCK inhibitors in a dose-response experiment and using a sandwich ELISA as a measuring method (MBL International).

rat mixed glial OPCs = experiment: Myelin protein expression in rat mixed glia-derived OPCs (qPCR, MBP ELISA); format: cell-based
Experimental: Rat postnatal OPCs were obtained as described elsewhere according to the original procedure of [McCarthy and […] (1980)]. In brief, postnatal Day 1 rat pups were sacrificed, and cerebral cortices dissected and mechanically dissociated in medium composed of DMEM, 10% heat inactivated fetal bovine serum, and 5 μg/ml penicillin/streptomycin. Dissociated cells were plated and maintained in 75-cm^2 culture flasks for 10 days, replenishing with fresh media at Days 3 and 7. At Day 10, the flasks were shaken on a heated (37°C) shaker for 1 hr at 110 rpm to separate loosely attached microglial cells. The medium was replenished, and the cells incubated for the remainder of the day. To dislodge OPCs from the astrocyte monolayer, flasks were shaken overnight (210 rpm, 37°C). […] Cells were then plated on PDL-coated tissue culture plastic and treated with test compounds. […] The results are presented as specific mRNA expression relative to either β-actin or β-tubulin, used as internal controls as indicated. OPCs isolated from rat mixed glial cultures are known to mature readily in the absence of mitogens achieving a premyelinating OL stage as determined by the expression of the cell surface sulfatide O4, and the myelin proteins MBP and PLP among others ([Armstrong, 1998]; [Barbarese & Pfeiffer, 1981]; [[…], 1999]; [Jung-[…], Schumacher, Robel, & Baulieu, 1996]; [Konola, Tyler, Yamamura, & Lees, 1991]). They also display marked morphological changes, progressing from bipolar to multibranched cells generating membranous structures, and probably represent a later developmental stage than Nph-OPC. In rat mixed glial OPCs, we measured myelin protein expression at the RNA level by qPCR and MBP production by ELISA (MBL International, Woburn, MA).

ROCKI = target: T1, ROCKI (Homo sapiens, UniProt Q13464); conditions: read-out: Activity, IC50 ROCKI, Table 1, ref Goodman et al., 2007, Nichols et al., 2009, heading: Activity; cited from earlier work
T1 construct: purchased EMD Millipore

ROCKII = target: T2, ROCKII (Homo sapiens, UniProt O75116); conditions: read-out: Activity, IC50 ROCKII, Table 1, ref Goodman et al., 2007, Nichols et al., 2009, heading: Activity; cited from earlier work
T2 construct: purchased EMD Millipore
T2 sequence (O75116 whole entry, species assumed): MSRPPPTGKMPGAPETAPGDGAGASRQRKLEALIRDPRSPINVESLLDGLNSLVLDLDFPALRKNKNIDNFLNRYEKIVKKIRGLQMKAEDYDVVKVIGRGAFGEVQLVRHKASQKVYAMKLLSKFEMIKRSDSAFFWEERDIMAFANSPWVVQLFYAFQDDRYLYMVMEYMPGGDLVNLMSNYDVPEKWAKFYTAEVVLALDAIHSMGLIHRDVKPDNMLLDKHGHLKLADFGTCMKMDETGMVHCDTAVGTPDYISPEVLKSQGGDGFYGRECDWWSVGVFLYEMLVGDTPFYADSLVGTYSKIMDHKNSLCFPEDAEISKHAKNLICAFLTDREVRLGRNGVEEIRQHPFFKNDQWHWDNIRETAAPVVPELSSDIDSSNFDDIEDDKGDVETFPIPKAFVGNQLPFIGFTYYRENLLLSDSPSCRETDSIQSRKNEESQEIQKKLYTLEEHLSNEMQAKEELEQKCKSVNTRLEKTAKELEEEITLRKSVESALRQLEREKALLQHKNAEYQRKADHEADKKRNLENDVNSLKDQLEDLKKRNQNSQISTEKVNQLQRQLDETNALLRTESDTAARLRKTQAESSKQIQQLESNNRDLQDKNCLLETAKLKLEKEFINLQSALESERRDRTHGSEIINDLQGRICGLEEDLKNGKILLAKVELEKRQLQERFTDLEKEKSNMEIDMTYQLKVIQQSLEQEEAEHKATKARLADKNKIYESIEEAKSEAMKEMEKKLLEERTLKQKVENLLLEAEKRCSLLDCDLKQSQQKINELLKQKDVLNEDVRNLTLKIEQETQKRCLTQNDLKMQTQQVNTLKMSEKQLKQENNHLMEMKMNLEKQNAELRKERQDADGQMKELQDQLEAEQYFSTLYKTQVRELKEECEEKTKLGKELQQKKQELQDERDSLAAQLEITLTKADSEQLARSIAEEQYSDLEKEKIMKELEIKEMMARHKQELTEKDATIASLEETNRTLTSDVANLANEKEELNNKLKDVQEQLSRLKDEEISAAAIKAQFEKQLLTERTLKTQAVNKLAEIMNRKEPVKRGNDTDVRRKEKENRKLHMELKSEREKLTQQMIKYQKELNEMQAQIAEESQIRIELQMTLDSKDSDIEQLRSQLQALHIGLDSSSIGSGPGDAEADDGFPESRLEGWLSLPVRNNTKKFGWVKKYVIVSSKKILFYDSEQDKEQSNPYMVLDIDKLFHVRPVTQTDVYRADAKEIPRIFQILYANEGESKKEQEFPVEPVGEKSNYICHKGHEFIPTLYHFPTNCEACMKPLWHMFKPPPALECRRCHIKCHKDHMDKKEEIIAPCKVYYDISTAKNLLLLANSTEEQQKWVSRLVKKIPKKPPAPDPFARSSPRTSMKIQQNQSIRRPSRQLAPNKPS

T1 sequence (Q13464 whole entry, species assumed): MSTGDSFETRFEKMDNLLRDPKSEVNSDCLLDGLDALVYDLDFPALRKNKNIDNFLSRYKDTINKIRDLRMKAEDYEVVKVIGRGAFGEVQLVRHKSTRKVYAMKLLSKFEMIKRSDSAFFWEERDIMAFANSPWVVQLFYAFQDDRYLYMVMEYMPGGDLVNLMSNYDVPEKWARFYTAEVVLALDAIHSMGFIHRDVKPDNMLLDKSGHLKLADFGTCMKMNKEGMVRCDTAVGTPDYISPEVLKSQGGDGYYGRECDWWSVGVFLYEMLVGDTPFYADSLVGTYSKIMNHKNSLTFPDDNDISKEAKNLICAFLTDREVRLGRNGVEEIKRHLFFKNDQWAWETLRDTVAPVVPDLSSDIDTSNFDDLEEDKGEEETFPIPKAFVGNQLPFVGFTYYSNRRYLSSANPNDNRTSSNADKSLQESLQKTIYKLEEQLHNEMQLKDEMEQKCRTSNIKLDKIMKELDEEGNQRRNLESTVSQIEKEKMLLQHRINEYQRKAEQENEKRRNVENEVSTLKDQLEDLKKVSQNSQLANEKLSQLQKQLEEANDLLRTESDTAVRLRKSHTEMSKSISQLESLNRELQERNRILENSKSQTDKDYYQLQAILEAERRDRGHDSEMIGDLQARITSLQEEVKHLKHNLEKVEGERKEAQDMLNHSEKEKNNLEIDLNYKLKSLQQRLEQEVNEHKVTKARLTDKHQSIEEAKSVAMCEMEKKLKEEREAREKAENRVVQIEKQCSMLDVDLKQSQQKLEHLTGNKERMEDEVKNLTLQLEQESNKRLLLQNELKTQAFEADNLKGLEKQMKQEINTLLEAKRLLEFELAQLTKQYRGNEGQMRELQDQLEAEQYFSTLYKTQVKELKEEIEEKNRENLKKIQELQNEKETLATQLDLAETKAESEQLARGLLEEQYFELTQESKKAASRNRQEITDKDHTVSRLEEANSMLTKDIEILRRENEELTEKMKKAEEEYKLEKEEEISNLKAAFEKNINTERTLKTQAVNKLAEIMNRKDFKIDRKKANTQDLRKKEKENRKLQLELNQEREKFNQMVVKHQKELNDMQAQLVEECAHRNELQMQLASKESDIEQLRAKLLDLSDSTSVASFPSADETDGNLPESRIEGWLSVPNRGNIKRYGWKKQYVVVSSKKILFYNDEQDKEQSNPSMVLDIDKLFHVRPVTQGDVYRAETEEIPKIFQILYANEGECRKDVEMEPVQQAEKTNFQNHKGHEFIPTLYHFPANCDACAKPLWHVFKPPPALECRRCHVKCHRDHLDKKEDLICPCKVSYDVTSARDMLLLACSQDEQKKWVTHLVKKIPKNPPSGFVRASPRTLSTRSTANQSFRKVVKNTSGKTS

| SMILES | OPC differentiation effect (processes and branches) [1] | Number of Hoechst-labeled nuclei (mouse Nph-OPCs) [cells/well] | Decrease of MYPT1 phosphorylation (ELISA) [2] [%] | Expression of MBP, PLP, and MOG mRNAs (qPCR) (rat mixed glial OPCs; 3 days maturation +4 days treatment, concentrations as low as 0.1 µM) | MBP at the protein level (ELISA) (rat mixed glial OPCs; treatments at 24 hr and 72 hr after plating) | IC50 (ROCKI) [nM] | IC50 ([1]; Mus musculus, Oligodendrocyte precursor cell, read-out: IC50, generation of branches in OPC differentiation assay) [nM] | IC50 (ROCKII) [nM] |
| --- | --- | --- | --- | --- | --- | --- | --- | --- |
| O=S(=O)(c1cccc2cnccc12)N1CCCNCC1 [Fasudil] | minor differentiation effect | 598 ± 21 | 60 | significant increase | increased expression | – | – | – |
| CC1=C(C(=O)Nc2cc3cn[nH]c3cc2F)C(c2ccc(C(F)(F)F)cc2)CC(=O)N1 (centres unmarked) [GSK 429286, 4-[4-(trifluoromethyl)phenyl]-N-(6-fluoro-1H-indazol-5-yl)-2-methyl-6-oxo-1,4,5,6-tetrahydro-3-pyridinecarboxamide] | – | – | – | – | – | 14 | 2300 | 48 |
